Data published in paper PMC8741257, “Identification of novel non-toxic and anti-angiogenic α-fluorinated chalcones as potent colchicine binding site inhibitors” (Journal of Enzyme Inhibition and Medicinal Chemistry, 2022).

What was measured:
[1] = system: Caspase -3/-7/-9 and PARP in MGC-803 cells; experiment: Western blot of apoptosis-related proteins; format: cell-based, human; conditions: 18, 36 and 72 nM, 48 h
Description: The Caspase family proteins are considered to be critical regulators of cell apoptosis, in which Caspase-3 is one of the most important "executioner" of apoptosis induction, capable of cleaving many important cellular matrices and represent the hallmark of apoptosis. To explore the apoptosis-associated protein alterations, the expression of Caspase -3/-7/-9 and PARP was analysed.
The protein levels in MGC-803 cells were assessed via western blot analysis. Exponentially growing MGC-803 cells were seeded at a density of 6 × 10^5/dishes and incubated overnight. Then 18, 36, 72nΜ of 4c were added in triplicate for 48 h incubation. After the cells were washed with cold PBS, the supernatant was removed. The supernatant was collected by centrifuging at 12,000 g for 10 min at 4 °C. The protein concentration in the supernatant was determined by using a BSA protein assay kit. Samples were prepared in SDS-PAGE loading buffer after BSA analysis to quantify proteins, then boiled for 10 min at 100 °C. Western blot analyses were conducted after separation by SDS-PAGE electrophoresis and transfer to nitrocellulose filter (NC) membranes. Immunoblotting was performed according to the antibody manufacturers’ recommendations.

[2] = system: MGC-803 cells; experiment: Cell cycle distribution (PI, flow cytometry); format: cell-based, human
From the text: Most inhibitors of microtubule polymerisation are able to block mitosis in G2/M phase, which ultimately leads to apoptosis by disrupting tubulin-microtubule balance. To elucidate whether the cytotoxicity of 4c was due to cell cycle arrest, flow cytometry analysis and PI marking method were used to evaluate the effects of 4c on the MGC-803 cell cycle distribution. […] A significant difference was also observed when we further evaluated its effects using different time points (Figure 5(C,D)). MGC-803 cells treated with 4c (36 nM) can be arrested in the G2/M phase from 30.37% at 6 h to 45.37% at 24 h.
MGC-803 cells (15 × 10^4 cells/well) were inoculated in 6-well plates and incubated at 37 °C for 24 h, and then treated with 4c (18, 36, 72nΜ). The collected cells were washed with cold PBS and then fixed in 75% ethanol in PBS at −20 °C overnight. The cells were then washed twice with PBS buffer and then stained with 500 μL of […] (PI, 5 mg) staining solution […] for 15 min in the dark. Samples were immediately assayed for DNA content using a flow cytometer (Becton, Dickinson and Company, USA). The percentage of cell cycle phases was analysed by the software provided in the instrument.

[3] = system: MGC-803 cells; experiment: Transwell cell invasion assay; format: cell-based, human; conditions: compared with control group
Description: Metastasis is one of the leading causes of morbidity and mortality of cancer patients. Microtubules-targeting inhibitors have also been reported to interfere with cell migration and invasion. Accordingly, the in vitro would healing assay and Transwell assays were performed to investigate the inhibitory effect of compound 4c on the migration and invasion of MGC-803 cells. As shown Figure 8(A,C), the scratches healing rate in the control group was approximately 64%. By contrast, the cells treated with 4c have much smaller scratched areas recovery at all concentrations. […] Cell invasion is an important malignant behaviour during cancer metastasis. In Tanswell assay, MGC-803 cells were seeded into upper chambers with pre-coated Matrigel stimulating base membrane in order to assess the cellular invasion.
Matrix gel was thawed overnight at 4 °C. […] Transwell was placed into a 24-well plate, 35% acetic acid (300 μL) was added to the upper chamber of the chamber, and after acetic acid completely entered the lower chamber, 100 μL of acetic acid from the lower chamber was aspirated into a 96-well plate, and three replicate wells of each concentration were shaken for 10 min, and the absorbance was measured at 560 nm with an enzyme marker.

[4] = system: Tg(flk1: EGFP) zebrafish embryos; experiment: Zebrafish angiogenesis assay; format: in vivo
Description: Since zebrafish embryos emerged as a powerful model for studying human diseases, the transgenic zebrafish with green fluorescent protein (GFP) labelled endothelial cells have been used extensively for testing angiogenesis in vivo. In this work, an anti-angiogenetic activity of 4c was confirmed by Tg(flk1: EGFP) zebrafish embryos in vivo assay. Fluorescently labelled 3hpf period embryos were treated with different doses of 4c and incubated at 28.5 °C. Until 30hpf, zebrafish was imaged under a fluorescent microscopy to observe the affection of applied agents on intersegmental vessels (ISVs) development. As shown in the Figure 11, ISVs were clearly observed in newly born zebrafish embryos of solvent-treated control group, which were growing at regular longitudinal and equidistant intervals.
The transgenic flk: enhanced GFP zebrafish embryos were transferred into 6-well plates (n = 30 per well) with 1 ml of aquaculture water (0.2 g/L of Instant Ocean Salt in distilled water) and raised at 28 °C. Then the embryos dechorionated at 12 h post fertilisation (hpf) was treated with the indicated concentrations of 4c or vehicle (DMSO). About 30 embryos were screened for each concentration gradient. At 30hpf, the zebrafish embryos were stripped, anaesthetised, and fixed with agarose gel. The images were taken under the microscope, and the number of blood vessels between the segments was recorded. Results were obtained from three independent determinations and presented as mean ± SD.

[5] = system: MGC-803 cells; experiment: Cell apoptosis assay (Annexin V/PI, flow cytometry); format: cell-based, human; conditions: 48 h, control 1.99%
Description: According to above-mentioned cell cycle analysis, we suppose that 4c might induce cells apoptosis, like other microtubule polymerisation inhibitors. Thus, the effects of 4c on MGC-803 cell apoptosis were examined by flow cytometry.
MGC-803 cells at 8 × 10^4 cells/well were seeded in 12-well cell culture plates overnight, and then the cultured cells were incubated with a dose range of compounds 4c for 48 h. The treated or untreated cells were washed twice with PBS and stained by Annexin V-PE and PI for 15 min without light exposure according to the manufacturer’s protocol. Apoptosis was quantified using a flow cytometer (Becton, Dickinson and Company, USA).

[6] = system: HUVECs; experiment: Tube formation assay on Matrigel; format: cell-based, human; conditions: 2.5 µM
Description: The formation of HUVEC tube represents the key steps in angiogenesis. Thus, we further tested the anti-vascular activity of 4c by performing a tube formation assay. As shown in Figure 10 HUVECs in the control group formed integrated tubules with multicentric junctions on the Matrigel matrix, while the tubes were fragmentary after exposure to 4c.
The matrix gel was thawed overnight at 4 °C and then added to 96 well plates. After incubated at 37 °C for 45 min, the matrix gel was solidified. Different concentrations of 4c were added to each well at the density of HUVECs was 1 × 10^5/well. After incubated at 37 °C for 6–8 h, the formation of tubules was observed under microscope

SMILES: COc1cc(C(=O)/C(F)=C/c2c[nH]c3cc(Br)ccc23)cc(OC)c1OC [4c, (Z)-3–(6-bromo-1H-indol-3-yl)-2-fluoro-1–(3,4,5-trimethoxyphenyl)prop-2-en-1-one]
- cleaved Caspase-3/-7/-9 expression [1]: up-regulation of cleaved Caspase-3/-7/-9
- percentage of cells in G2/M ([2]; 18 nM, control 32.15%): 50.47%
- percentage of cells in G2/M ([2]; 36 nM, 6 h): 30.37%
- percentage of cells in G2/M ([2]; 36 nM, control 32.15%): 83.65%
- percentage of cells in G2/M ([2]; 72 nM, control 32.15%): 90.21%
- invasion ability (Transwell, Matrigel) [3]: significant reduced invasion ability
- embryo development and blood vessels ([4]; dose ≥ 5 µM): marked delay in development and only scattered or fragmentary blood vessels were observed
- lowest dose with anti-angiogenic phenotype ([4]; imaged at 30hpf): 2.5 µM
- number and length of intersegmental vessels (ISVs) ([4]; imaged at 30hpf, different doses): all dose-dependently reduced
- percentage of apoptotic cells ([5]; 18 nM (lowest dose)): 19.12%
- percentage of apoptotic cells ([5]; 72 nM (highest dose)): 57.99%
- HUVEC cord formation, tube area and length [6]: dramatically suppressed
